We go through 13 substances from patent US20240181081A1, “Compositions and Methods for Treatment of Myotonic Dystrophy Type 1 with CRISPR/SACAS9” (Vertex Pharmaceuticals Incorporated, priority 2021, published 2024).

Series [1] relates to CUG RNA foci in primary DM1 patient myoblasts. The series can be described thus: DOUBLE-cut screening: FISH staining of RNA foci in primary DM1 patient myoblasts. The following applies: sgRNA pair RNP, 72 hrs post nucleofection; for % of CUG foci free nuclei (DNA-PKi): 3 μM Compound 6 for 48 hrs; for % of CUG foci free nuclei (Vehicle): DMSO 48 hrs. Format: cell-based, human. A digest of the protocol: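 Primary DM1 patient myoblasts nucleofected with paired upstream/downstream sgRNA–SaCas9 RNPs (20 pmol protein, 60 pmol sgRNA each), then treated 48 hrs with DMSO or 3 μM DNA-PK inhibitor. At 72 hrs post nucleofection, CUG foci stained by Cy3-PNA(CAG)5 FISH with MBNL1 co-staining and quantified by high-content confocal imaging.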

In series [2] the test system is CTG repeat expansion in the 3′ UTR of human DMPK gene. Description: DOUBLE-cut screening: CTG repeat excision by loss-of-signal ddPCR in primary DM1 patient myoblasts. The series is classed as cell-based. To be noted: sgRNA pair RNP, mean of upstream and downstream ddPCR assays; for % of CTG repeat excision efficiency by ddPCR (DNA-PKi): 3 μM Compound 6 for 48 hrs; for % of CTG repeat excision efficiency by ddPCR (Vehicle): DMSO 48 hrs. A digest of the protocol: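 Paired upstream/downstream sgRNAs, each as RNP with recombinant SaCas9 (20 pmol protein:60 pmol sgRNA), mixed 1:1 and nucleofected into primary DM1 myoblasts; cells then given DMSO or 3 μM DNA-PKi Compound 6 for 48 hrs. Genomic DNA taken 72 hrs post-nucleofection; excision is mean of upstream and downstream loss-of-signal ddPCR, normalized to DMPK exon 1 reference.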

As to “SaU8 + SaD5: SaCas9 sgRNA pair, SEQ ID NOs: 8 and 13 (guide 1 GGCTCGAAGGGTCCTTGTAGCC; guide 2 GGGTTTGGCAAAAGCAAATTTC; listed as DNA, chemistry not fully specified)”, in series [1], the “% of CUG foci free nuclei (DNA-PKi)” value came to 84.28% and the “% of CUG foci free nuclei (Vehicle)” value is on record as 72.77%. In series [2], the “% of CTG repeat excision efficiency by ddPCR (DNA-PKi)” value was determined as 58.77% and the “% of CTG repeat excision efficiency by ddPCR (Vehicle)” value came to 49.47%.
The matching figures for “SaU8 + SaD6: SaCas9 sgRNA pair, SEQ ID NOs: 8 and 14 (guide 1 GGCTCGAAGGGTCCTTGTAGCC; guide 2 CTTTTGCCAAACCCGCTTTTTC; listed as DNA, chemistry not fully specified)”: 65.28%, 32.43%, 40.19% and 23.57%.
The matching figures for “SaU8 + SaD7: SaCas9 sgRNA pair, SEQ ID NOs: 8 and 15 (guide 1 GGCTCGAAGGGTCCTTGTAGCC; guide 2 GGGGCGCGGGATCCCCGAAAAA; listed as DNA, chemistry not fully specified)”: 82.90%, 52.92%, 53.42% and 38.19%.
As for “SaU8 + SaD12: SaCas9 sgRNA pair, SEQ ID NOs: 8 and 20 (guide 1 GGCTCGAAGGGTCCTTGTAGCC; guide 2 TCAGTGCATCCAAAACGTGGAT; listed as DNA, chemistry not fully specified)”, in series [1], the “% of CUG foci free nuclei (DNA-PKi)” value was 85.37% and the “% of CUG foci free nuclei (Vehicle)” value was found to be 76.92%. Moreover, in series [2], the “% of CTG repeat excision efficiency by ddPCR (DNA-PKi)” value worked out at 55.46% and the “% of CTG repeat excision efficiency by ddPCR (Vehicle)” value is recorded as 36.64%.
On the same counts, the results for “SaU8 + SaD15: SaCas9 sgRNA pair, SEQ ID NOs: 8 and 23 (guide 1 GGCTCGAAGGGTCCTTGTAGCC; guide 2 GACAATAAATACCGAGGAATGT; listed as DNA, chemistry not fully specified)” are 86.21%, 76.50%, 57.24% and 39.47%.
The matching figures for “SaU8 + SaD17: SaCas9 sgRNA pair, SEQ ID NOs: 8 and 25 (guide 1 GGCTCGAAGGGTCCTTGTAGCC; guide 2 TTTATTCGCGAGGGTCGGGGGT; listed as DNA, chemistry not fully specified)”: 79.35%, 52.34%, 49.09% and 30.50%.
As for “SaU8 + SaD18: SaCas9 sgRNA pair, SEQ ID NOs: 8 and 26 (guide 1 GGCTCGAAGGGTCCTTGTAGCC; guide 2 GGGCCTTTTATTCGCGAGGGTC; listed as DNA, chemistry not fully specified)”, in series [1], the “% of CUG foci free nuclei (DNA-PKi)” value is listed as 70.76% and the “% of CUG foci free nuclei (Vehicle)” value is 36.66%. In addition, in series [2], the “% of CTG repeat excision efficiency by ddPCR (DNA-PKi)” value stood at 44.51% and the “% of CTG repeat excision efficiency by ddPCR (Vehicle)” value came out at 18.17%.
The matching figures for “SaU8 + SaD19: SaCas9 sgRNA pair, SEQ ID NOs: 8 and 27 (guide 1 GGCTCGAAGGGTCCTTGTAGCC; guide 2 AGGACCCCCACCCCCGACCCTC; listed as DNA, chemistry not fully specified)”: 83.45%, 61.41%, 46.04% and 28.95%.
The matching figures for “SaU8 +SaD3: SaCas9 sgRNA pair, SEQ ID NOs: 8 and 11 (guide 1 GGCTCGAAGGGTCCTTGTAGCC; guide 2 CAACGATAGGTGGGGGTGCGTG; listed as DNA, chemistry not fully specified)”: 82.41%, 57.67%, 59.28% and 48.19%.
In the case of “SaU8 +SaD10: SaCas9 sgRNA pair, SEQ ID NOs: 8 and 18 (guide 1 GGCTCGAAGGGTCCTTGTAGCC; guide 2 TTGGGGGTCCTGTAGCCTGTCA; listed as DNA, chemistry not fully specified)”, in series [1], the “% of CUG foci free nuclei (DNA-PKi)” value was found to be 82.92% and the “% of CUG foci free nuclei (Vehicle)” value came to 74.46%. In series [2], the “% of CTG repeat excision efficiency by ddPCR (DNA-PKi)” value worked out at 69.07% and the “% of CTG repeat excision efficiency by ddPCR (Vehicle)” value is reported as 48.45%.
Take “SaU8 +SaD11: SaCas9 sgRNA pair, SEQ ID NOs: 8 and 19 (guide 1 GGCTCGAAGGGTCCTTGTAGCC; guide 2 CAAAACGTGGATTGGGGTTGTT; listed as DNA, chemistry not fully specified)”: in series [1], the “% of CUG foci free nuclei (DNA-PKi)” value was determined as 70.97% and the “% of CUG foci free nuclei (Vehicle)” value came out at 44.65%. In series [2], the “% of CTG repeat excision efficiency by ddPCR (DNA-PKi)” value was 47.57% and the “% of CTG repeat excision efficiency by ddPCR (Vehicle)” value came out at 31.52%.
On the same counts, the results for “SaU8 +SaD13: SaCas9 sgRNA pair, SEQ ID NOs: 8 and 21 (guide 1 GGCTCGAAGGGTCCTTGTAGCC; guide 2 CCCAACAACCCCAATCCACGTT; listed as DNA, chemistry not fully specified)” are 77.05%, 43.66%, 51.64% and 29.46%.
Turning to “SaU8 +SaD20: SaCas9 sgRNA pair, SEQ ID NOs: 8 and 28 (guide 1 GGCTCGAAGGGTCCTTGTAGCC; guide 2 AGATGGAGGGCCTTTTATTCGC; listed as DNA, chemistry not fully specified)”, in series [1], the “% of CUG foci free nuclei (DNA-PKi)” value was 81.21% and the “% of CUG foci free nuclei (Vehicle)” value is 71.20%. Besides, in series [2], the “% of CTG repeat excision efficiency by ddPCR (DNA-PKi)” value is given as 62.59% and the “% of CTG repeat excision efficiency by ddPCR (Vehicle)” value is reported as 39.72%.
